Consider nine compounds from patent publication EP0503388A1, “Pregna-21-oic acid esters” (TEIKOKU SEIYAKU KABUSHIKI KAISHA, priority 1991, dated 1992).

Molecules are shown by their SMILES.

The subject of the assay is back of volunteers (10 healthy adult males). Briefly: Vasoconstrictive activity: skin paleness after application of 0.1 % ointment in fin chamber. Format: in vivo. The settings on record: for vasoconstrictive activity (skin paleness), overall result in words: 0.1 % by weight in white petrolatum base, compared with reference ointments of prednisolone and dexamethasone; for % of the number of subject which showed (+) Paleness was clearly observed / % of the number of subject which showed (±) Paleness was slightly obseved: 0.1 % by weight, about 20 mg of sample, 10 subjects. As to the method: The compounds of the present invention were tested for the vasoconstrictive activity in the following manner.
Each of the compounds (1) to (10) of the present invention was mixed in a white petrolatum base (white petrolatum : liquid paraffin = 9 : 1) at a concentration of 0.1 % by weight for use as a test sample. Commercially available steroidal medicaments (ointments of prednisolone and dexamethasone) were used at a concentration of 0.1 % by weight of the steroid as a reference sample. A commercially available ointment base was used as a control.
To one portion of the back of volunteers (10 healthy adult males) was applied each sample. About 20 mg of each sample was put in an aluminum part of fin chamber, which was applied. Two hours and four hours after the application, samples were simultanously removed. […] The result was evaluated based on the following criteria (-) Paleness was not observed. (±) Paleness was slightly obseved. (+) Paleness was clearly observed.

Setting [1] is: application time 2 hr, 2 hours after removal.
Setting [2] is: application time 2 hr, 4 hours after removal.
Where [3] appears, read: application time 4 hr, 2 hours after removal.
Where [4] appears, read: application time 4 hr, 4 hours after removal.

Regarding `COC(=O)[C@@H](O)[C@@]1(O)[C@H](C)C[C@H]2[C@@H]3CCC4=CC(=O)C=C[C@]4(C)[C@@]3(F)[C@@H](O)C[C@@]21C` [(5), methyl (20S)-9α-fluoro-16α-methyl-11β,17,20-trihydroxy-3-oxo-1,4-pregnadien-21-oate], the “vasoconstrictive activity (skin paleness), overall result in words” value (from here on “vasoconstrictive activity”) is recorded as “did not show significant difference from reference”.
Regarding `COC(=O)[C@H](O)[C@@]1(O)[C@H](C)C[C@H]2[C@@H]3CCC4=CC(=O)C=C[C@]4(C)[C@@]3(F)[C@@H](O)C[C@@]21C` [(6), methyl (20R)-9α-fluoro-16α-methyl-11β,17,20-trihydroxy-3-oxo-1,4-pregnadien-21-oate], the “vasoconstrictive activity” value is given as “did not show significant difference from reference”.
As for `COC(=O)[C@H](OC(=O)C(C)(C)C)[C@@]1(O)CC[C@H]2[C@@H]3CCC4=CC(=O)C=C[C@]4(C)[C@H]3[C@@H](O)C[C@@]21C` [Compound (4)], the “% of the number of subject which showed (+) Paleness was clearly observed” value under setting [1] stood at 0%, the “% of the number of subject which showed (+) Paleness was clearly observed” value under setting [2] worked out at 0%, the “% of the number of subject which showed (+) Paleness was clearly observed” value under setting [3] is given as 20% and the “% of the number of subject which showed (+) Paleness was clearly observed” value under setting [4] turned out to be 40%. For the same compound, the “% of the number of subject which showed (±) Paleness was slightly obseved” value is, setting by setting: under setting [1], 10%; under setting [2], 70%; under setting [3], 70%; under setting [4], 100%.
Turning to `COC(=O)[C@@H](OC(C)=O)[C@@]1(O)[C@H](C)C[C@H]2[C@@H]3CCC4=CC(=O)C=C[C@]4(C)[C@@]3(F)[C@@H](O)C[C@@]21C` [Compound (7), methyl (20S/R)-acetoxy-11β,17-dihydroxy-9α-fluoro-16α-methyl-3-oxo-1,4-pregnadien-21-oate], the “vasoconstrictive activity” value was “excellent pharmacological activity”. Moreover, under setting [1], the “% of the number of subject which showed (+) Paleness was clearly observed” value came to 0% and the “% of the number of subject which showed (±) Paleness was slightly obseved” value is 10%. For the same compound, under setting [2], the “% of the number of subject which showed (+) Paleness was clearly observed” value is on record as 0% and the “% of the number of subject which showed (±) Paleness was slightly obseved” value turned out to be 50%. Moreover, under setting [3], the “% of the number of subject which showed (+) Paleness was clearly observed” value is given as 30% and the “% of the number of subject which showed (±) Paleness was slightly obseved” value is 70%. For the same compound, under setting [4], the “% of the number of subject which showed (+) Paleness was clearly observed” value is given as 50% and the “% of the number of subject which showed (±) Paleness was slightly obseved” value stood at 80%.
Consider `COC(=O)[C@H](OC(C)=O)[C@@]1(O)[C@H](C)C[C@H]2[C@@H]3CCC4=CC(=O)C=C[C@]4(C)[C@@]3(F)[C@@H](O)C[C@@]21C` [Compound (8), methyl (20S/R)-acetoxy-11β,17-dihydroxy-9α-fluoro-16α-methyl-3-oxo-1,4-pregnadien-21-oate], for which the “vasoconstrictive activity” value is “did not show significant difference from reference”.
For `COC(=O)[C@@H](OC(=O)C(C)(C)C)[C@@]1(O)[C@H](C)C[C@H]2[C@@H]3CCC4=CC(=O)C=C[C@]4(C)[C@@]3(F)[C@@H](O)C[C@@]21C` [Compound (9), methyl (20S)-11β,17-dihydroxy-9α-fluoro-16α-methyl-3-oxo-20-pivaloyloxy-1,4-pregnadien-21-oate], the “vasoconstrictive activity” value is listed as “excellent pharmacological activity”. For the same compound, under setting [1], the “% of the number of subject which showed (+) Paleness was clearly observed” value is on record as 0% and the “% of the number of subject which showed (±) Paleness was slightly obseved” value is 0%. Under setting [2], the “% of the number of subject which showed (+) Paleness was clearly observed” value came to 0% and the “% of the number of subject which showed (±) Paleness was slightly obseved” value was 0%. For the same compound, under setting [3], the “% of the number of subject which showed (+) Paleness was clearly observed” value was determined as 0% and the “% of the number of subject which showed (±) Paleness was slightly obseved” value worked out at 50%. Also, under setting [4], the “% of the number of subject which showed (+) Paleness was clearly observed” value is on record as 10% and the “% of the number of subject which showed (±) Paleness was slightly obseved” value is listed as 90%.
Regarding `COC(=O)[C@H](OC(=O)C(C)(C)C)[C@@]1(O)[C@H](C)C[C@H]2[C@@H]3CCC4=CC(=O)C=C[C@]4(C)[C@@]3(F)[C@@H](O)C[C@@]21C` [Compound (10), methyl (20R)-11β,17-dihydroxy-9α-fluoro-16α-methyl-3-oxo-20-pivaloyloxy-1,4-pregnadien-21-oate], the “% of the number of subject which showed (+) Paleness was clearly observed” value reads like this: under setting [1], 0%; under setting [2], 0%; under setting [3], 0%; under setting [4], 0%. Also, the “% of the number of subject which showed (±) Paleness was slightly obseved” value is 0% under setting [1], 10% under setting [2], 0% under setting [3] and 10% under setting [4].
With `C[C@@H]1C[C@H]2[C@@H]3CCC4=CC(=O)C=C[C@]4(C)[C@@]3(F)[C@@H](O)C[C@]2(C)[C@@]1(O)C(=O)CO` [Dexamethasone, dexamethasone, reference compound], the “% of the number of subject which showed (+) Paleness was clearly observed” value turned out to be 0% under setting [1], 0% under setting [2], 0% under setting [3] and 0% under setting [4]. Also, the “% of the number of subject which showed (±) Paleness was slightly obseved” value is on record as 0% under setting [1], 10% under setting [2], 10% under setting [3] and 20% under setting [4].
As to `C[C@]12C=CC(=O)C=C1CC[C@@H]1[C@@H]2[C@@H](O)C[C@@]2(C)[C@H]1CC[C@]2(O)C(=O)CO` [Prednisolone, prednisolone, reference compound], the “% of the number of subject which showed (+) Paleness was clearly observed” value reads like this: under setting [1], 0%; under setting [2], 0%; under setting [3], 0%; under setting [4], 0%. Also, the “% of the number of subject which showed (±) Paleness was slightly obseved” value reads like this: under setting [1], 0%; under setting [2], 0%; under setting [3], 0%; under setting [4], 0%.
